In patent publication US20250325531A1, “TREATMENT OF SYSTOLIC DYSFUNCTION” (MyoKardia, Inc., priority 2024, published 2025):

What was measured:
[1] = tested on: patients with stable HFrEF; assay: TTE pharmacodynamics in SAD cohorts, patients with stable HFrEF; assay type: in vivo, human; settings: Pooled SAD Cohorts 1 and 2
Method: PD assessment was done by transthoracic echocardiography as described in Example 1 above. TTE evaluations of LVSV (derived from LVOT-VTI), LVEF, LVFS, SET, and other parameters were PD assessments at predetermined time points. The patients were on bed rest for 10 minutes before the TTEs were obtained. In Part 2 (MAD), TTEs were usually obtained before the morning dose and/or at 7 hours postdose (i.e., close to the anticipated peak effect based on the PK profile from the healthy volunteer studies).
For both Cohorts 1 and 2, the pharmacodynamic effects of Compound I on echocardiographic markers of cardiac structure and function were analyzed by Compound I plasma concentration groups: <2000 ng/ml (low concentration group) and ≥2000 ng/ml (high concentration group) (Table 12).

[2] = Pharmacokinetics of single ascending doses (SAD Cohorts 1 and 2) in patients with stable HFrEF; assay type: in vivo, human
Source text: This example describes a study to establish preliminary safety and tolerability of single- and multiple-ascending oral doses of Compound I in ambulatory patients with stable heart failure with reduced ejection fraction (HFrEF). Key eligibility criteria included stable HFrEF of ischemic or nonischemic origin, treated with guideline-directed medical therapy (EF initial requirement during Screening was 20 to 45%, and was later changed by amendment to 15 to 35%). Subjects with active ischemia or severe or valvular heart disease were excluded. The study also aimed (1) to establish preliminary human PK of Compound I after single- and multiple-ascending oral doses of Compound I in patients with HFrEF; (2) to determine changes in left ventricular stroke volume (LVSV) derived from left ventricular outflow tract-velocity time integral (LVOT-VTI), left ventricular ejection fraction (LVEF) and change in left ventricular fractional shortening (LVFS) with Compound I after ascending single and multiple doses compared with Baseline and placebo as measured by transthoracic echocardiography (TTE); (3) to determine changes in systolic ejection time (SET) with Compound I after ascending single and multiple doses compared with Baseline and placebo as measured by TTE; and (4) to determine changes in pharmacodynamics (PD) dose/concentration effects (change in LVSV (derived from LVOT-VTI), LVEF, LVFS) with Compound I compared with Baseline and placebo after ascending single and multiple doses, as measured by TTE.
Part 1 was a randomized, crossover, DB, placebo-controlled, two-cohort, sequential ascending (oral) single-dose study in ambulatory patients with heart failure. All patients received placebo and 2 or 3 active doses of Compound I. Each patient underwent sequential, single-dose treatment events separated by no fewer than 5 days and no more than 14 days. Patients in Cohort 1 may also return for a fourth dosing period (open label) after the SRC reviews available data and recommends the dose. Patients enrolled prior to the implementation of Amendment 1 may be offered the opportunity to return for the open-label period. Patients in Cohort 2 participated in 2 to 4 dosing periods, based on SRC decision. Patients were randomized to one of the different dosing sequences outlined in FIG. 5A. Multiple patients could be dosed at the same time or during the same week depending on administrative issues, i.e., capacity and scheduling.
For each dosing period, patients were admitted to the clinical site on Day-1. Patients were assessed for absence of exclusion criteria (e.g., new lab abnormalities and/or conditions that indicate the patient is clinically unstable). They received Compound I or placebo in the morning of Day 1 followed by serial PK and PD assessments, as well as serial safety assessments. Patients were discharged on Day 3 (i.e., ˜48 hours following Day 1 dosing). An additional outpatient plasma PK sample was taken on the morning of Day 4 at 72 hours postdose.
Study medication consisted of Compound I 5 mg tablets, 25 mg tablets, 100 mg tablets, or matching placebo tablets. In Part 1 (SAD), Compound I or placebo was administered after an overnight fast (at least 6 hours), while in Part 2 (MAD), Compound I was administered after a 2 hour fast (Cohort A) or with food (Cohorts B, C, and D). The dose was ingested with a minimum of 240 mL of water, but more water was ingested as needed. The entire dose was administered over a period of up to 15 minutes. The time of dose used to determine future assessments was the time the last tablet was taken. In the cohorts for Part 2 (MAD), a BID regimen was used.
In Part 1 (SAD), patients fasted overnight (approximately 6 hours) through 4 hours postdose. With the exception of the water consumed with the dose, water could be ingested until approximately 1 hour prior to dosing and approximately 1 hour after dosing. If doses were split, subjects fasted 6 hours prior to the first half-dose. […]

[3] = plasma concentration group <2000 ng/mL (n = 7)
[4] = plasma concentration group ≥2000 ng/mL (n = 12)

Q: What does the source list for `Cn1cc(S(=O)(=O)[C@@](C)(F)C2CCN(C(=O)Nc3ccon3)CC2)c(C(F)F)n1` [Compound I, (R)-4-(1-((3-(difluoromethyl)-1-methyl-1H-pyrazol-4-yl)sulfonyl)-1-fluoroethyl)-N-(isoxazol-3-yl) piperidine-1-carboxamide]?
A: A wave peak, placebo-corrected mean change from Baseline (LS mean difference) [1, 3]: -3.2 cm/s; E wave peak, placebo-corrected mean change from Baseline (LS mean difference) [1, 3]: -1.1 cm/s; E/A ratio, placebo-corrected mean change from Baseline (LS mean difference) [1, 3]: 0.09; E/e′ lateral, placebo-corrected mean change from Baseline (LS mean difference) [1, 3]: 0.6; LVEDD, placebo-corrected mean change from Baseline (LS mean difference) [1, 3]: 0.2 mm; LVEDV, placebo-corrected mean change from Baseline (LS mean difference) [1, 3]: -2.5 mL; LVEF, placebo-corrected mean change from Baseline (LS mean difference) [1, 3]: 4.1%; LVESD, placebo-corrected mean change from Baseline (LS mean difference) [1, 3]: −1.3 mm; LVESV, placebo-corrected mean change from Baseline (LS mean difference) [1, 3]: -4.0 mL; LVFS, placebo-corrected mean change from Baseline (LS mean difference) [1, 3]: 3.1%; LVGLS, placebo-corrected mean change from Baseline (LS mean difference) [1, 3]: −1.1%; LVSV, placebo-corrected mean change from Baseline (LS mean difference) [1, 3]: 1.0 mL; SET, placebo-corrected mean change from Baseline (LS mean difference) [1, 3]: 8 ms; e′ lateral, placebo-corrected mean change from Baseline (LS mean difference) [1, 3]: -1 cm/s; A wave peak, placebo-corrected mean change from Baseline (LS mean difference) [1, 4]: -8.8 cm/s; E wave peak, placebo-corrected mean change from Baseline (LS mean difference) [1, 4]: -1.6 cm/s; E/A ratio, placebo-corrected mean change from Baseline (LS mean difference) [1, 4]: 0.08; E/e′ lateral, placebo-corrected mean change from Baseline (LS mean difference) [1, 4]: 0.2; LVEDD, placebo-corrected mean change from Baseline (LS mean difference) [1, 4]: −0.3 mm; LVEDV, placebo-corrected mean change from Baseline (LS mean difference) [1, 4]: -1.9 mL; LVEF, placebo-corrected mean change from Baseline (LS mean difference) [1, 4]: 4.4%; LVESD, placebo-corrected mean change from Baseline (LS mean difference) [1, 4]: −1.8 mm; LVESV, placebo-corrected mean change from Baseline (LS mean difference) [1, 4]: -3.5 mL; LVFS, placebo-corrected mean change from Baseline (LS mean difference) [1, 4]: 2.8%; LVGLS, placebo-corrected mean change from Baseline (LS mean difference) [1, 4]: −2.1%; LVSV, placebo-corrected mean change from Baseline (LS mean difference) [1, 4]: 9.0 mL; SET, placebo-corrected mean change from Baseline (LS mean difference) [1, 4]: 36 ms; e′ lateral, placebo-corrected mean change from Baseline (LS mean difference) [1, 4]: -1 cm/s; mean (SD) Cmax ([2]; 350 mg single dose, fasted): 2760 (856) ng/mL; AUC0-∞ ([2]; SAD Cohort 1, 175 mg (n = 8)): 53,800 hr × ng/mL; AUC0-∞ ([2]; SAD Cohort 1, 350 mg (n = 8)): 103,000 hr × ng/mL; Cmax ([2]; SAD Cohort 1, 350 mg (n = 8)): 2760 ng/mL; AUC0-∞ ([2]; SAD Cohort 1, 525 mg (n = 2)): 127,000 hr × ng/mL; AUC0-24 ([2]; SAD Cohort 1, 4th dose 350 mg (n = 1)): 70,100 hr × ng/mL
